From US20250281451A1, “COMPOSITIONS AND METHODS FOR MODULATING SLEEP AND USES THEREOF” (Brightseed, Inc., priority 2022, published 2025) come the findings set out here.

Entries after “also recorded” stand apart in the source; their conditions may differ.

One series deals with T1, Orx2 (Homo sapiens, UniProt O43614).
T1 construct: DiscoverX
T1 sequence (O43614 1-444): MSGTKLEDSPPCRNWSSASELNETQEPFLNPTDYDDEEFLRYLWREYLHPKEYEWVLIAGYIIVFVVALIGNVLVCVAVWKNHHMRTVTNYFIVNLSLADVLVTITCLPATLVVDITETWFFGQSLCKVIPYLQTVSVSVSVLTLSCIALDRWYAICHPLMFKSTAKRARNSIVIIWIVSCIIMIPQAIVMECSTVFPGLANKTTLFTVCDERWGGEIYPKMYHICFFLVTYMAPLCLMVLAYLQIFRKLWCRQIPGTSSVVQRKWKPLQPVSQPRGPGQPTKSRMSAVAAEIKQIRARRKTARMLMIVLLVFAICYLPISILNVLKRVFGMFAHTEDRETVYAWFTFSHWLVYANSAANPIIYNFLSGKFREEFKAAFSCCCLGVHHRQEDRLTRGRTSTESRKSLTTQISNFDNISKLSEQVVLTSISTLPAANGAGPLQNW
Kind of series: Orx2 antagonist screening, chemiluminescent cell assay with Orexin B EC80. In kind it is cell-based. The note with it: for % Agonism Orx2 at Relative IC50: absolute percent agonism at the μM concentration of the relative OR2 IC50; for IC50: antagonist mode against Orexin B EC80, read-out: Relative IC50 of Orx2. As for the experimental part:
For this example, the following protocol was used: 1.) seed cells in 20 μL Cell Plating Reagent; 2.) incubate cells overnight at 37° C. and 5% CO2; 3.) treat cells with 2.5 μL 10× antagonist prepared in Compound Dilution Buffer (For OR2 screening, 2.5 μL of 1:100 natural product sample in DiscoverX cell plating reagent. Control antagonist, Seltorexant, 10× stock was prepared at 1500 nM); 4.) incubate for 30 minutes at 37° C. and 5% CO2; 5.) treat cells with 2.5 μL 10× agonist prepared in Compound Dilution Buffer (For OR2 screening, 2.5 μL of 10× Orexin B EC80, 252.7 nM); 6.) incubate for 90 minutes at 37° C. and 5% CO2; 7.) add 12.5 μL Working Detection Solution; 8.) incubate for 1 hour at room temperature in the dark; and 9.) read chemiluminescent signal.
(§1) The plants described herein were tested to determine the concentration, in μM, to achieve the relative IC50 of OR2 receptor, the absolute percent agonism achieved at the μM concentration of the relative OR2 IC50, the percentage receptor activity at the concentration, in μM, needed to achieve IC50 in OR2, the percentage cell viability, measured by XTT assay, at the IC50 μM concentration, the concentration of the fraction, in fold dilution, needed to achieve IC50 of OR2, and the percentage receptor activity at the concentration of the fraction, in fold dilution, needed to achieve IC50 of OR2.

A further series concerns the target T2, Orx1 (Homo sapiens, UniProt O43613).
T2 sequence (O43613 1-425): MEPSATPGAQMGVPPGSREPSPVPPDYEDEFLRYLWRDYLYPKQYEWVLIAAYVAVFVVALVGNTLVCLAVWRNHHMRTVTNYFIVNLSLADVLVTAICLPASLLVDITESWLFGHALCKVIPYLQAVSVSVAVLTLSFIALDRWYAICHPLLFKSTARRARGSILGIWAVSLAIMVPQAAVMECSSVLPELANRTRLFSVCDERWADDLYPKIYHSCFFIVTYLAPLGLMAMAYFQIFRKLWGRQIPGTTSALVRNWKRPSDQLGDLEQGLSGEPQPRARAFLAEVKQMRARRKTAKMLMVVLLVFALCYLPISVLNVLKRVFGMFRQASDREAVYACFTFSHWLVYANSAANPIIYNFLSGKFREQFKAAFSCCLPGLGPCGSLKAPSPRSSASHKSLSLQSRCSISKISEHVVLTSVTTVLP
Description: % agonism on Orx1 at the OR2 IC50 concentration. The note with it: at the μM concentration needed to achieve IC50 in OR2. In kind it is cell-based. As to the method:
For this example, the following protocol was used: 1.) seed cells in 20 μL Cell Plating Reagent; 2.) incubate cells overnight at 37° C. and 5% CO2; 3.) treat cells with 2.5 μL 10× antagonist prepared in Compound Dilution Buffer (For OR2 screening, 2.5 μL of 1:100 natural product sample in DiscoverX cell plating reagent.
as §1

A further series relates to cells. Kind of series: cell viability, XTT assay. The format is cell-based. The note with it: at the IC50 μM concentration of the compound. As for the experimental part: as §1
The subject of the next series is male Sprague-Dawley rat. Description: in vivo tolerability, dose escalation, adverse effect observation. The note with it: for 15 min effects (adverse effects) / 30 min effects (adverse effects) / 60 min effects (adverse effects): n=3 rats, (x/3) animals affected; for tolerability: all four doses (30, 100, 315 and 500 mg/kg) p.o., 60 min observation. As for the experimental part: In this example, the in vivo tolerability of Compounds 26, 21, 29, and 13 was assessed.
Naïve rats (male Sprague-Dawley rat) were acclimatized to the procedure room in their home cages up to 7 days following arrival to the test facility, with food and water available ad libitum. On the day of experiment, animals were acclimatized to the experimental room for at least one hour prior to the beginning of any experiment. All animals were tail marked, weighed and randomly assigned to treatment groups. The animals (n=3 per dose) were treated with either Compounds 26, 21, 29, and 13 (10 mL/kg, p.o.). For each compound a maximum of 4 doses were tested using a dose escalation procedure starting from 30 mg/kg. If this initial dose is well-tolerated, the dosage is increased to 100 mg/kg. If the 30 mg/kg dose is not tolerated, the dose is reduced to 15 mg/kg. Following the dose escalation procedure, if the 100 mg/kg dose is well-tolerated, the dose is escalated to 315 mg/kg. If it is not tolerated, the dose is decreased to 60 mg/kg. The pattern continues with the next decision point: if 315 mg/kg is well-tolerated, the dose is increased to the maximum of 500 mg/kg. If 315 mg/kg is not tolerated, the dose is decreased to 200 mg/kg.
The compounds would be considered not tolerated if three or more adverse effects (or any severe adverse effect) occurred at specific dose during the entire period of 60 mins. […] Mild—slight decrease in activity, responsive when provoked. Moderate—decrease in activity, less responsive when provoked.

For orientation: IC50 means the point on the concentration scale where inhibition reaches its midpoint. `O=c1cc(-c2ccc(O)c(O)c2)oc2cc(O)cc(O)c12` [Compound 13, 2-(3,4-dihydroxyphenyl)-5,7-dihydroxychromen-4-one]: at Orx2, the “% Agonism Orx2 at Relative IC50” value came to 50% and the IC50 was 72.5 µM. In addition, the “IC50 Dilution of Orx2 (fold dilution)” value at Orx2 (concentration of the fraction of the plant source, in fold dilution, needed to achieve IC50 of OR2) came out at 2283.9 fold dilution. Further, the “% Agonism on Orx1 at OR2 IC50” value at Orx1 is recorded as 42.72%. For the same compound, the “% Cell viability at IC50” value in the series on cells came out at 98.24%. Moreover, in the series with male Sprague-Dawley rat (30 mg/kg p.o.), the “15 min effects (adverse effects)” value was “No adverse effects”, the “30 min effects (adverse effects)” value is “No adverse effects” and the “60 min effects (adverse effects)” value is given as “Reduced activity (3/3)”. In the series with male Sprague-Dawley rat (100 mg/kg p.o.), the “15 min effects (adverse effects)” value is “No adverse effects”, the “30 min effects (adverse effects)” value is on record as “Reduced activity” and the “60 min effects (adverse effects)” value was “No adverse effects”. Besides, in the series with male Sprague-Dawley rat (315 mg/kg p.o.), the “15 min effects (adverse effects)” value is “No adverse effects”, the “30 min effects (adverse effects)” value was “No adverse effects” and the “60 min effects (adverse effects)” value is recorded as “No adverse effects”. In the series on male Sprague-Dawley rat (500 mg/kg p.o.), the “15 min effects (adverse effects)” value is recorded as “Pica (2/3)”, the “30 min effects (adverse effects)” value is on record as “Reduced activity; also recorded: Pica (2/3)” and the “60 min effects (adverse effects)” value is on record as “Reduced activity (1/3)”. Further, the tolerability result with male Sprague-Dawley rat is reported as “well-tolerated”.
On to `CC1O[C@@H](OC2C(O)[C@H](Oc3c(-c4ccc(O)cc4)oc4cc(O)cc(O)c4c3=O)OC(CO)[C@H]2O)[C@@H](O)C(O)[C@H]1O` (stereo partly drawn) [Compound 24, 3-[(2S,5R)-3,5-dihydroxy-6-(hydroxymethyl)-4-[(2S,3S,5R)-3,4,5-trihydroxy-6-methyloxan-2-yl]oxyoxan-2-yl]oxy-5,7-dihydroxy-2-(4-hydroxyphenyl)chromen-4-one], for which, on Orx2, the “% Agonism Orx2 at Relative IC50” value is given as 45% and the IC50 came to 191 µM. Moreover, the “% Agonism on Orx1 at OR2 IC50” value on Orx1 is recorded as 48.83%. For the same compound, the “% Cell viability at IC50” value with cells worked out at 96.12%.
Regarding `COc1cc(-c2oc3c(OC)c(O[C@@H]4O[C@H](COC(C)=O)[C@@H](O)[C@H](O)[C@H]4O[C@@H]4O[C@@H](C)[C@H](O)[C@@H](O)[C@H]4O)cc(O)c3c(=O)c2O)ccc1O` [Compound 25, [(2R,3S,4S,5R,6S)-6-[3,5-dihydroxy-2-(4-hydroxy-3-methoxyphenyl)-8-methoxy-4-oxochromen-7-yl]oxy-3,4-dihydroxy-5-[(2S,3R,4R,5R,6S)-3,4,5-trihydroxy-6-methyloxan-2-yl]oxyoxan-2-yl]methyl acetate], on Orx2, the “% Agonism Orx2 at Relative IC50” value is on record as 50% and the IC50 came out at 148 µM. Besides, the “% Agonism on Orx1 at OR2 IC50” value at Orx1 worked out at 103.7053%. In addition, the “% Cell viability at IC50” value in the series with cells is listed as 91.68%.
`O=c1c(O[C@@H]2OC[C@H](O)[C@H](O)[C@H]2O)c(-c2ccc(O)cc2)oc2cc(O)cc(O)c12` [Compound 26, 5,7-dihydroxy-2-(4-hydroxyphenyl)-3-[(2S,3R,4S,5S)-3,4,5-trihydroxyoxan-2-yl]oxychromen-4-one]: at Orx2, the “% Agonism Orx2 at Relative IC50” value stood at 40% and the IC50 stood at 179 µM. In addition, on Orx1, the “% Agonism on Orx1 at OR2 IC50” value is 60.57%. In addition, in the series on cells, the “% Cell viability at IC50” value was 98.95%. Further, in the series on male Sprague-Dawley rat (30 mg/kg p.o.), the “15 min effects (adverse effects)” value is on record as “Reduced activity”, the “30 min effects (adverse effects)” value is “No adverse effects” and the “60 min effects (adverse effects)” value is recorded as “Reduced activity (3/3)”. Moreover, in the series with male Sprague-Dawley rat (100 mg/kg p.o.), the “15 min effects (adverse effects)” value was “Reduced activity”, the “30 min effects (adverse effects)” value is “Reduced activity” and the “60 min effects (adverse effects)” value was “Reduced activity (3/3)”. Also, in the series with male Sprague-Dawley rat (315 mg/kg p.o.), the “15 min effects (adverse effects)” value is “No adverse effects”, the “30 min effects (adverse effects)” value is on record as “No adverse effects” and the “60 min effects (adverse effects)” value was “No adverse effects”. Besides, in the series with male Sprague-Dawley rat (500 mg/kg p.o.), the “15 min effects (adverse effects)” value is “No adverse effects”, the “30 min effects (adverse effects)” value is on record as “Reduced activity” and the “60 min effects (adverse effects)” value is “No adverse effects”. In addition, the tolerability result in the series on male Sprague-Dawley rat was “well-tolerated”.
Take `O=c1c(O[C@@H]2O[C@@H](CO)[C@H](O)[C@H]2O)c(-c2ccc(O)cc2)oc2cc(O)cc(O)c12` [Compound 27, 3-[(2S,3R,4R,5S)-3,4-dihydroxy-5-(hydroxymethyl)oxolan-2-yl]oxy-5,7-dihydroxy-2-(4-hydroxyphenyl)chromen-4-one]: at Orx2, the “% Agonism Orx2 at Relative IC50” value is 45% and the IC50 worked out at 154 µM. For the same compound, at Orx1, the “% Agonism on Orx1 at OR2 IC50” value is 56.18%. Further, the “% Cell viability at IC50” value with cells turned out to be 101.69%.
Turning to `COc1c(O)cc2oc(-c3ccc(O[C@@H]4O[C@H](C(=O)O)[C@@H](O)[C@H](O)[C@H]4O)c(O)c3)c(OC)c(=O)c2c1O` [Compound 28, (2S,3S,4S,5R,6S)-6-[4-(5,7-dihydroxy-3,6-dimethoxy-4-oxochromen-2-yl)-2-hydroxyphenoxy]-3,4,5-trihydroxyoxane-2-carboxylic acid], on Orx2, the “% Agonism Orx2 at Relative IC50” value came out at 50% and the 50% inhibitory concentration (IC50) was found to be 154 µM. Further, the “% Agonism on Orx1 at OR2 IC50” value at Orx1 worked out at 75.74%. Also, in the series on cells, the “% Cell viability at IC50” value is 107.58%.
Taken in the same sequence, the figures for `Cc1cc(O)c2c(c1)C(=O)c1cc(O)cc(O[C@@H]3O[C@H](CO)[C@@H](O)[C@H](O)[C@H]3O)c1C2=O` [Compound 30, 1,6-dihydroxy-3-methyl-8-[(2S,3R,4S,5S,6R)-3,4,5-trihydroxy-6-(hydroxymethyl)oxan-2-yl]oxyanthracene-9,10-dione] were 50%, 81.3 µM, 26.23% and 100%.
